This passage reports Relative binding affinity results from ChEMBL document CHEMBL1122084, “Relative affinity of 17 alpha- and/or 21-esters and 17 alpha, 21-diesters of cortisol for a glucocorticoid receptor from rat thymocytes” (J Med Chem, 1982).

In the first test the target is T1, Glucocorticoid receptor (Rattus norvegicus) (UniProt P06536).
T1 sequence (whole entry): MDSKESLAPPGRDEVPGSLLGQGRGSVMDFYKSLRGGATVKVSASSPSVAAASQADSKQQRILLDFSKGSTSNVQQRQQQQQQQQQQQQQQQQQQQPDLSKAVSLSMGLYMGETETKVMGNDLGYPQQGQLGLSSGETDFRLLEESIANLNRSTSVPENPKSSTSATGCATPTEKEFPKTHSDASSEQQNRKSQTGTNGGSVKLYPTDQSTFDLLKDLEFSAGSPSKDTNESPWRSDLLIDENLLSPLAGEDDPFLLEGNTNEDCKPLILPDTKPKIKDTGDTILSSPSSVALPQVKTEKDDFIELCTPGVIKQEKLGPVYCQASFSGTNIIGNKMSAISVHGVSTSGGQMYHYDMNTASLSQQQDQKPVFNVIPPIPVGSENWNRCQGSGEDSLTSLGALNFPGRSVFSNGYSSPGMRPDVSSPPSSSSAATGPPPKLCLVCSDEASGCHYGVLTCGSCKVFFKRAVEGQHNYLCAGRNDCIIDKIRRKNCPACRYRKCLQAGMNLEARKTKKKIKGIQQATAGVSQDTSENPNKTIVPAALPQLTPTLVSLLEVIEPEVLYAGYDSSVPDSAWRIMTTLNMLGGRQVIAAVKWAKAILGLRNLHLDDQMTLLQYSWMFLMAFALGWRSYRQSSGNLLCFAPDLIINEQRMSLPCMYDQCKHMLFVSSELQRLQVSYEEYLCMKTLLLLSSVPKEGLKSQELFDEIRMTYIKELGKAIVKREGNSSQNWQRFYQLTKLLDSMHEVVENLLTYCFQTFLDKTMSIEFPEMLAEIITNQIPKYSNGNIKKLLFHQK
Put plainly: Relative binding affinity for glucocorticoid receptor of rat thymus cytosol by displacement of [3H]dexamethasone. In general terms: Displacement assays read how much labelled ligand stays bound in the presence of the test substance.
`C[C@]12CCC(=O)C=C1CC[C@@H]1[C@@H]2[C@@H](O)C[C@@]2(C)[C@H]1CC[C@]2(O)C(=O)CO` showed a Relative binding affinity of 1.

Another test deals with T1, Glucocorticoid receptor (Rattus norvegicus). Put plainly: Relative binding affinity for glucocorticoid receptor of rat thymus cytosol by displacement of [3H]dexamethasone compared to cortisol.
`CCCCC(=O)OCC(=O)[C@@]1(O)CCC2C3CCC4=CC(=O)CCC4(C)C3C(O)CC21C` (stereo partly drawn) gave a Relative binding affinity of 0.32. For `CC(=O)O[C@]1(C(=O)CO)CCC2C3CCC4=CC(=O)CCC4(C)C3C(O)CC21C` (stereo partly drawn), the Relative binding affinity was determined as 1.14. On the same count and under the same terms, under `CCC(=O)OCC(=O)[C@@]1(OC(C)=O)CCC2C3CCC4=CC(=O)CCC4(C)C3C(O)CC21C` (stereo partly drawn) stands 0.093; under `CCCCC(=O)O[C@]1(C(=O)COC(=O)CCC)CCC2C3CCC4=CC(=O)CCC4(C)C3C(O)CC21C` (stereo partly drawn), 1.33. Same read-out and setting: for `CCCCC(=O)O[C@]1(C(=O)CO)CCC2C3CCC4=CC(=O)CCC4(C)C3C(O)CC21C` (stereo partly drawn) the value was 11.5. On the same count and under the same terms, for `CC(=O)OCC(=O)[C@@]1(OC(C)=O)CCC2C3CCC4=CC(=O)CCC4(C)C3C(O)CC21C` (stereo partly drawn) the value was 0.036; for `CCCCC(=O)O[C@]1(C(=O)COC(C)=O)CCC2C3CCC4=CC(=O)CCC4(C)C3C(O)CC21C` (stereo partly drawn), 0.76; for `CCCC(=O)O[C@]1(C(=O)CO)CC[C@H]2[C@@H]3CCC4=CC(=O)CC[C@]4(C)[C@H]3[C@@H](O)C[C@@]21C`, 12.4. `CC(=O)OCC(=O)[C@@]1(O)CC[C@H]2[C@@H]3CCC4=CC(=O)CC[C@]4(C)[C@H]3[C@@H](O)C[C@@]21C` had a Relative binding affinity of 0.046. With `CCCCC(=O)O[C@]1(C(=O)COC(=O)CC)CCC2C3CCC4=CC(=O)CCC4(C)C3C(O)CC21C` (stereo partly drawn), the Relative binding affinity was 1.17.

`CCCC(=O)OCC(=O)[C@@]1(OC(C)=O)CCC2C3CCC4=CC(=O)CCC4(C)C3C(O)CC21C` (stereo partly drawn) displayed a Relative binding affinity of 0.152.

Take `CCCCC(=O)OCC(=O)[C@@]1(OC(C)=O)CCC2C3CCC4=CC(=O)CCC4(C)C3C(O)CC21C` (stereo partly drawn): the Relative binding affinity was found to be 0.272.
